Experimental data reported in patent US7915259B2, “Diazabicyclononene derivatives and use thereof” (priority 2005, dated 2011).

Assays:
[1] = system: double transgenic rats with human renin and human angiotensinogen; assay: Hemodynamic measurements (telemetry method) in hypertensive double transgenic rats; type: in vivo, rat; conditions: female double transgenic rats
Procedure: Hemodynamic Measurements (Telemetry Method)
Animals—Female double transgenic rats with human renin and human angiotensinogen were purchased from RCC Ltd, Füllingsdorf, Switzerland. All animals were maintained under identical conditions and had free access to normal pelleted rat chow and water. Rats were initially treated with enalapril (1 mg/kg/day) during 2 months. After approximately two weeks following cessation of enalapril treatment the double transgenic rats become hypertensive and reach mean arterial blood pressures in the range of 160-170 mmHg.
Transmitter implantation—The rats were anaesthetised with a mixture of 90 mg/kg Ketamin-HCl (Ketavet, Parke-Davis, Berlin FRG) and 10 mg/kg xylazin (Rompun, Bayer, Leverkusen, FRG) i.p. The pressure transmitter was implanted under aseptic conditions into the peritoneal cavity with the sensing catheter placed in the descending aorta below the renal arteries pointing upstream. The transmitter was sutured to the abdominal musculature and the skin closed.
Telemetry-System—Telemetry units were obtained from Data Sciences (St. Paul, Minn.). […] The tip of the catheter was filled with a viscous gel that prevents blood reflux and was coated with an antithrombogenic film to inhibit thrombus formation. The implants (length=2.5 cm, diameter=1.2 cm) weighted 9 g and have a typical battery life of 6 months. A receiver platform (RPC-1, Data Sciences) connected the radio signal to digitized input that was sent to a dedicated personal computer (Compaq, deskpro). Arterial pressures were calibrated by using an input from an ambient-pressure reference (APR-1, Data Sciences). Systolic, mean and diastolic blood pressure was expressed in millimeter of mercury (mmHg).
[…] The effect of the test substance is expressed as maximal decrease of mean arterial pressure (MAP) in the treated group versus the control group.

recombinant human renin = target: T1, recombinant human renin (Homo sapiens, UniProt P00797); assay: Primary renin inhibition assay: IC50 in buffer, 384 well MTP (Ang I EIA readout); type: biochemical
T1 sequence (P00797 67-406): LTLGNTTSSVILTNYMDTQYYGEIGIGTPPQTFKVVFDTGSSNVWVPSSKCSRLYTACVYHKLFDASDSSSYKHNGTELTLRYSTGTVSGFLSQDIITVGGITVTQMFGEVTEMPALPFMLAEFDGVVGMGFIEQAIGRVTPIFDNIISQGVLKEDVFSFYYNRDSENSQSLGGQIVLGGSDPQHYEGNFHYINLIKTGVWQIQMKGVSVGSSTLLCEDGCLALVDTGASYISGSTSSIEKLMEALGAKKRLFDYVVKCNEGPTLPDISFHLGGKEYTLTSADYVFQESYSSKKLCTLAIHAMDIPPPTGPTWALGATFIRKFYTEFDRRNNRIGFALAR
Procedure: 1. Enzyme Immuno Assay (EIA) to Estimate Ang I Accumulation and Renin Inhibition
1.1 Preparation of Ang I-BSA Conjugate
1.3 mg (1 μmol) of Ang I [1-10 (Bachem, H-1680)] and 17 mg (0.26 μmol) of BSA (Fluka, 05475) were dissolved in 4 mL of 0.1M phosphate buffer, pH 7.4, after which 2 mL of a 1:100 dilution of glutaraldehyde in H2O (Sigma G-5882) was added dropwise. The mixture was incubated overnight at 4° C., then dialyzed against 2 liters of 0.9% NaCl, twice for 4 h at rt, followed by dialysis against 2 liters of PBS 1× overnight at rt. The solution was then filtered with a Syringe filter, 0.45 μm (Nalgene, Cat. No. 194-2545). The conjugate can be stored in polypropylene tubes in 0.05% sodium azide at 4° C. for at least 12 months.
1.2 Preparation of BSA-Ang I Coated MTP […]
The renin assay was adapted from an assay described before (Fischli W. et al., Hypertension, 1991, 18:22-31) and consists of two steps: in the first step, recombinant human renin is incubated with its substrate (commercial human tetradecapeptide renin substrate) to create the product Angiotensin I (Ang I). In the second step, the accumulated Ang I is measured by an immunological assay (enzyme immuno assay, EIA). […]

With Cc1cc(Cl)c(OCCOc2ccc(C3=C(C(=O)N(Cc4cccc(C)c4C)C4CC4)[C@H]4CNC[C@@H](C3)N4)cc2)c(Cl)c1 [Compound (I′), (1R,5S)-7-{4-[2-(2,6-dichloro-4-methylphenoxy)ethoxy]-phenyl}-3,9-diazabicyclo[3.3.1]non-6-ene-6-carboxylic acid cyclopropyl-(2,3-dimethylbenzyl)amide] the “activity in the animal model” value ([1]; oral) was “active”, the “blood pressure decrease (maximal decrease of mean arterial pressure vs control group)” value ([1]; single oral dose of 3 mg/kg) was 17 mmHg and the “blood pressure decrease (maximal decrease of mean arterial pressure vs control group)” value ([1]; single oral dose of 10 mg/kg) was 30 mmHg. The IC50 (recombinant human renin) was 0.3 nM.
